Test system: Ehrlich tumour cells (murine mammary adenocarcinoma)
Test: Effect of isomers and BLAS on in vivo tumour growth, Ehrlich tumours (Example 9)
Parameters: species or system Balb/c mice
Conditions: for Tumour surface, overall values (Mean) / Tumour surface, overall values (Median) / Tumour volume, overall values (Mean) / Tumour volume, overall values (Median): 260 ng/mouse i.p. days 6, 7 and 14
Description: This assay was made in order to compare the effect of each stereoisomer on in vivo tumour growth in mice with the effect of the mixture of all of them challenged with Ehlrich tumours. The same products, equipment, reagents, doses, vehicle and route of administration as in example 8 were used.
Mice were inoculated with Ehrlich tumour cells. It was described as a murine mammary adenocarcinoma. Ehrlich tumour is a murine mammary carcinoma originally raised in an outbred mouse, and therefore it belongs to the so-called non-specific tumours (Subiza J L, Viñuela J E, Rodriguez R, Gil J, Figueredo M A, de la Concha. E G. Development of splenic natural suppressor (NS) cells in Ehrlich tumor bearing mice. Int J Cancer, 44:307 315; 1989). It may grow across histocompatibility barriers and therefore is not mouse strain specific (Carry P J, Prescott D M, Ogilvie G K. Resistance to Ehrlich ascites tumor in a strain of dystrophic mice. Cancer Res., 39:2139-2140; 1979).
Ehrlich cells were maintained in vitro by serial passages every 3-4 days. Cultures were performed with RPMI medium medium (RPMI, 10% foetal calf serum, 2 mM L-glutamine, non essential aminoacids, 1 mM sodium pyruvate, 20 mM HEPES, 80 μg/mL gentamycin; all of them were purchased from Sigma, St. Louis, Mo., USA) by seeding 5×10^6 cells onto 75 cm^2 culture flasks. Tumour cells collected from 48 hour cultures were used as source of cells for the studies described below.
Tumours were established by subcutaneous inoculation in the right hind flank. Mice (Balb/c) were inoculated with 0.2 mL containing 2×10^5 viable Ehrlich cells. The day of subcutaneous inoculation will be considered Day 0 of the test.
Mice were observed daily and the tumour size recorded twice a week. This was carried out by measuring two perpendicular diameters (L/W) with a calliper. These measures were used to obtain both tumour surface and volume: Tumour surface=L×W(mm^2) Tumour volume=L×W^2×½(mm^3)
Results were expressed as single values and/or as the mean±SD or median from each experimental group.
A case-control study was performed with treated and control mice in order to determine whether differences between BLAS or each diferent stereoisomer and administration of placebo were present. […] The U-test of Mann Withney was chosen for being one of the better known non-parametrical tests, anyway, results for this test are equivalent both to those of Wilcoxon's sum of ranges and Kruskal-Wallis two-groups test.

[1] = day 13 after tumour inoculation
[2] = day 16 after tumour inoculation
[3] = day 20 after tumour inoculation
[4] = day 23 after tumour inoculation
[5] = day 29 after tumour inoculation
[6] = day 31 after tumour inoculation
[7] = day 35 after tumour inoculation
[8] = day 38 after tumour inoculation

Question: `Br.N[C@@]1(C[n+]2ccccc2)C[C@@H](C(=O)O)NC1=O.[Br-]` (single isomer, unassigned; isomer 1) [isomer 1, 3R,5S-1-(3-Amino-5-carboxy-2-oxopyrrolidin-3-ylmethyl)pyridinium bromide hidrobromide] was tested. Which “Inhibition of the in vivo growth of Ehrlich tumour cells, in words” value (260 ng i.p. days 6, 7 and 14) did it give?
Answer: inhibit the in vivo growth

Question: And the “Tumour surface, overall values (Mean)” value (day 0 after tumour inoculation)?
Answer: 0 mm^2

Question: And the “Tumour surface, overall values (Median)” value (day 0 after tumour inoculation)?
Answer: 0 mm^2

Question: What about the “Tumour volume, overall values (Mean)” value (day 0 after tumour inoculation) of the same compound?
Answer: 0 mm^3

Question: And the “Tumour volume, overall values (Median)” value (day 0 after tumour inoculation)?
Answer: 0 mm^3

Question: And the “Tumour surface, overall values (Mean)” value (day 8 after tumour inoculation)?
Answer: 5.69 mm^2

Question: And the “Tumour surface, overall values (Median)” value (day 8 after tumour inoculation)?
Answer: 2 mm^2

Question: What about the “Tumour volume, overall values (Mean)” value (day 8 after tumour inoculation) of the same compound?
Answer: 9.91 mm^3

Question: What about the “Tumour volume, overall values (Median)” value (day 8 after tumour inoculation) of the same compound?
Answer: 2 mm^3

Question: And the “Tumour surface, overall values (Mean)” value [1]?
Answer: 13.69 mm^2

Question: What about the “Tumour surface, overall values (Median)” value [1] of the same compound?
Answer: 16 mm^2

Question: And the “Tumour volume, overall values (Mean)” value [1]?
Answer: 31.34 mm^3

Question: What about the “Tumour volume, overall values (Median)” value [1] of the same compound?
Answer: 32 mm^3

Question: And the “Tumour surface, overall values (Mean)” value [2]?
Answer: 20.875 mm^2

Question: And the “Tumour surface, overall values (Median)” value [2]?
Answer: 20.5 mm^2

Question: What about the “Tumour volume, overall values (Mean)” value [2] of the same compound?
Answer: 53.12 mm^3

Question: And the “Tumour volume, overall values (Median)” value [2]?
Answer: 47.25 mm^3

Question: What about the “Tumour surface, overall values (Mean)” value [3] of the same compound?
Answer: 32.37 mm^2

Question: What about the “Tumour surface, overall values (Median)” value [3] of the same compound?
Answer: 27.5 mm^2

Question: What about the “Tumour volume, overall values (Mean)” value [3] of the same compound?
Answer: 105.19 mm^3

Question: What about the “Tumour volume, overall values (Median)” value [3] of the same compound?
Answer: 68.75 mm^3

Question: What about the “Tumour surface, overall values (Mean)” value [4] of the same compound?
Answer: 42.12 mm^2

Question: What about the “Tumour surface, overall values (Median)” value [4] of the same compound?
Answer: 39.5 mm^2

Question: And the “Tumour volume, overall values (Mean)” value [4]?
Answer: 160.5 mm^3

Question: What about the “Tumour volume, overall values (Median)” value [4] of the same compound?
Answer: 123.25 mm^3

Question: What about the “Tumour surface, overall values (Mean)” value [5] of the same compound?
Answer: 50 mm^2

Question: What about the “Tumour surface, overall values (Median)” value [5] of the same compound?
Answer: 39.5 mm^2

Question: And the “Tumour volume, overall values (Mean)” value [5]?
Answer: 202.19 mm^3

Question: What about the “Tumour volume, overall values (Median)” value [5] of the same compound?
Answer: 123.25 mm^3

Question: And the “Tumour surface, overall values (Mean)” value [6]?
Answer: 57 mm^2

Question: What about the “Tumour surface, overall values (Median)” value [6] of the same compound?
Answer: 46.5 mm^2

Question: What about the “Tumour volume, overall values (Mean)” value [6] of the same compound?
Answer: 249.06 mm^3

Question: What about the “Tumour volume, overall values (Median)” value [6] of the same compound?
Answer: 147.75 mm^3

Question: What about the “Tumour surface, overall values (Mean)” value [7] of the same compound?
Answer: 68.87 mm^2

Question: What about the “Tumour surface, overall values (Median)” value [7] of the same compound?
Answer: 52.5 mm^2

Question: What about the “Tumour volume, overall values (Mean)” value [7] of the same compound?
Answer: 342.94 mm^3

Question: And the “Tumour volume, overall values (Median)” value [7]?
Answer: 173.25 mm^3

Question: And the “Tumour surface, overall values (Mean)” value [8]?
Answer: 78.81 mm^2

Question: What about the “Tumour surface, overall values (Median)” value [8] of the same compound?
Answer: 53 mm^2

Question: What about the “Tumour volume, overall values (Mean)” value [8] of the same compound?
Answer: 425.91 mm^3

Question: And the “Tumour volume, overall values (Median)” value [8]?
Answer: 191 mm^3

Question: And the “Differences in Ehrlich tumour growth rate vs. placebo, statistical significance p (Mann-Whitney U test)” value (either in surface or volume, all days scored after the day 13th)?
Answer: < 0.05

Source: patent US8835466B2, “Synthesis and uses of pyroglutamic acid derivatives” (Prodimed, S.A., priority 2006, dated 2014)
